The structures appear in SMILES notation.

The subject of this test is Human immunodeficiency virus 1. As to the kind of experiment: Binding to 176-mer RNA from the packaging region of HIV-1 (LAI) and value of binding constant K is determined. It is filed as functional.
With `NCC1OC(OC2C(CSCCNc3c4ccccc4nc4ccccc34)OC(OC3C(O)C(N)CC(N)C3OC3OC(CN)C(O)C(O)C3N)C2O)C(N)C(O)C1O` (stereo not given), the K was determined as 16000 M⁻¹.
As for `NC[C@@H]1O[C@H](O[C@H]2[C@@H](O)[C@H](O[C@@H]3[C@@H](O)[C@H](N)C[C@H](N)[C@H]3O[C@H]3O[C@H](CN)[C@@H](O)[C@H](O)[C@H]3N)O[C@@H]2CO)[C@H](N)[C@@H](O)[C@@H]1O`, the figure is 120000 M⁻¹; as for `NCC1O[C@H](O[C@H]2[C@@H](O)[C@H](O[C@H]3[C@H](O)[C@@H](N)C[C@@H](N)[C@@H]3O[C@H]3O[C@H](CN)[C@@H](O)[C@H](O)[C@H]3N)O[C@@H]2CSCCOCCSSCCOCCSC[C@H]2O[C@@H](O[C@H]3[C@H](O)[C@@H](N)C[C@@H](N)[C@@H]3O[C@H]3O[C@H](CN)[C@@H](O)[C@H](O)[C@H]3N)[C@H](O)[C@@H]2O[C@@H]2OC(CN)[C@H](O)[C@@H](O)[C@@H]2N)[C@H](N)[C@@H](O)[C@@H]1O` (stereo not given in full), 3800 M⁻¹.
As for `N=C(N)NCC1OC(OC2C(CO)OC(OC3C(O)C(NC(=N)N)CC(NC(=N)N)C3OC3OC(CNC(=N)N)C(O)C(O)C3NC(=N)N)C2O)C(NC(=N)N)C(O)C1O` (stereo not given), the figure is 100000 M⁻¹; as for `NC[C@@H]1O[C@H](O[C@H]2[C@@H](O)[C@H](O[C@@H]3[C@@H](O)[C@H](N)C[C@H](N)[C@H]3O[C@H]3O[C@H](CO)[C@@H](O)[C@H](O)[C@H]3N)O[C@@H]2CO)[C@H](N)[C@@H](O)[C@@H]1O`, 43000 M⁻¹.

The values above are taken from ChEMBL document CHEMBL1135854, “Absorption studies on aminoglycoside binding to the packaging region of human immunodeficiency virus type-1” (Bioorg Med Chem Lett, 2002).
